Among the test systems are NCI-H460; BT-549; DU-145; A498; SNB-19; NCI-H226; SK-MEL-28; CCRF-CEM; M14; U-251; HCT-15; OVCAR-5; SNB-75; UACC-62; OVCAR-4; IGROV-1; HCC 2998; SK-MEL-5; SK-OV-3; CAKI-1.
Common to all, as to assay: inhibition of tumour cell growth, NCI panel, 48 h

Counter-ions that a name gives are not always drawn.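 Exposure lasted 48 hours, with cells grown in 96-well plates and compounds tested at five concentrations. The concentration for 50% growth inhibition is given as GI50.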 The source made the active and inactive calls. Cut-off read from the data, not from the text of the source: active = GI50 up to about 1.1 µM and inactive = higher. Some results are limits rather than exact numbers.

On to `Cc1cc(C)c(N[S+]([O-])c2cccc(C(F)(F)F)c2)c(C)c1` (configuration not stated), for which the GI50 in the test on NCI-H460, in the test with BT-549, with DU-145, in the test with A498, with SNB-19 and in the test on NCI-H226 was > 100 µM (inactive) in each case. For the same molecule, the GI50 is > 100 µM (inactive) with SK-MEL-28; > 100 µM (inactive) with CCRF-CEM; > 100 µM (inactive) in the test on M14; > 100 µM (inactive) with U-251; over 100 µM in the test on HCT-15; > 100 µM (inactive) in the test on OVCAR-5.

Take `COc1ccc(O)c(/C=N/CCC/N=C/c2cc(OC)ccc2O)c1`: the GI50 in the test with NCI-H460 was 41.4 µM (inactive); in the test on BT-549, 23.1 µM (inactive); in the test on SNB-75 it was 18.3 µM (inactive); in the test with DU-145, 22 µM (inactive); in the test on A498, 8.91 µM (inactive); with SNB-19, 21.6 µM (inactive). Further, the GI50 in the test on NCI-H226 was 27.4 µM (inactive); in the test with SK-MEL-28, 46.2 µM (inactive); in the test with CCRF-CEM it was 3.8 µM (inactive); in the test on M14 it was 37.2 µM (inactive); with U-251, 16.7 µM (inactive); in the test with UACC-62 it was 33.1 µM (inactive). Also, the GI50 in the test with OVCAR-4 is 21.8 µM (inactive); in the test with IGROV-1, 34.4 µM (inactive); with HCT-15 it was 18.1 µM; with OVCAR-5 it was 38.3 µM (inactive).

With `O=C1c2ccccc2C(=O)N1CC1S(=O)(=O)OCCOS1(=O)=O`, the GI50 in the test on NCI-H460, in the test on SNB-75, with HCC 2998, in the test on DU-145, in the test with A498 and with SNB-19 was > 100 µM (inactive) each time. Moreover, the GI50 in the test with NCI-H226, with SK-MEL-5, in the test with SK-MEL-28, in the test on CCRF-CEM, in the test with M14 and in the test with U-251 was > 100 µM (inactive) throughout. For the same molecule, the GI50 in the test with UACC-62 was > 100 µM (inactive); in the test with OVCAR-4 it was > 100 µM (inactive); in the test on SK-OV-3, > 100 µM (inactive); in the test on IGROV-1, > 100 µM (inactive); with HCT-15, over 100 µM; in the test on OVCAR-5, > 100 µM (inactive). In addition, in the test with CAKI-1, the GI50 was > 100 µM (inactive).

As for `CS(=O)(=O)CCC(N)P(=O)(O)O` (configuration not stated), the GI50 with NCI-H460, in the test on BT-549, in the test on SNB-75, in the test on DU-145, in the test on SNB-19 and with NCI-H226 was > 100 µM (inactive) each time. The GI50 in the test on SK-MEL-5, in the test on SK-MEL-28, in the test on CCRF-CEM, with M14, with U-251 and in the test on UACC-62 was > 100 µM (inactive) throughout. Also, the GI50 with OVCAR-4 is > 100 µM (inactive); in the test with SK-OV-3, > 100 µM (inactive); in the test with IGROV-1, > 100 µM (inactive); in the test with HCT-15, over 100 µM; in the test on OVCAR-5, > 100 µM (inactive); in the test with CAKI-1 it was > 100 µM (inactive).

As to `O=C1NN=C(c2c[nH]c3ccccc23)CC1NCc1ccccc1` (configuration not stated), the GI50 with NCI-H460, in the test with BT-549, in the test on SNB-75, in the test with DU-145, with A498 and in the test on SNB-19 was > 100 µM (inactive) throughout. Also, the GI50 in the test on NCI-H226, with SK-MEL-5, with SK-MEL-28, in the test with CCRF-CEM, with M14 and in the test with U-251 was > 100 µM (inactive) each time. Also, the GI50 was > 100 µM (inactive) in the test with UACC-62; > 100 µM (inactive) in the test with SK-OV-3; 1.01 µM (active) in the test on IGROV-1; over 100 µM in the test with HCT-15; > 100 µM (inactive) in the test on OVCAR-5; > 100 µM (inactive) in the test with CAKI-1.

For the molecule `CC(C)(C)OC(=O)NCCC(N)=S`, the GI50 in the test with NCI-H460, with BT-549, in the test on SNB-75, with DU-145, in the test with A498 and in the test on SNB-19 was > 100 µM (inactive) throughout. For the same molecule, the GI50 is > 100 µM (inactive) with NCI-H226; > 100 µM (inactive) with SK-MEL-5; > 100 µM (inactive) in the test on SK-MEL-28; 57.5 µM (inactive) in the test on CCRF-CEM; > 100 µM (inactive) in the test with M14; > 100 µM (inactive) in the test with U-251. The GI50 is > 100 µM (inactive) in the test on UACC-62; > 100 µM (inactive) with SK-OV-3; > 100 µM (inactive) with IGROV-1; over 100 µM in the test on HCT-15; > 100 µM (inactive) in the test with OVCAR-5.

With `Cc1ccc(/N=N/c2c(O)c(C(=O)O)cc3ccccc23)c(S(=O)(=O)O)c1`, the GI50 with BT-549, in the test with SNB-75, in the test on DU-145, in the test with A498, with SNB-19 and in the test with NCI-H226 was > 100 µM (inactive) each time. Further, the GI50 with SK-MEL-5, in the test on SK-MEL-28, with CCRF-CEM, in the test with M14, in the test on U-251 and with UACC-62 was > 100 µM (inactive) in each case. For the same molecule, the GI50 was > 100 µM (inactive) with OVCAR-4; > 100 µM (inactive) with SK-OV-3; > 100 µM (inactive) with IGROV-1; over 100 µM with HCT-15; > 100 µM (inactive) in the test on OVCAR-5; > 100 µM (inactive) with CAKI-1.

For the molecule `CN(C)CCOC(=O)COc1ccc(Cl)cc1` [CENTROPHENOXINE HYDROCHLORIDE], the GI50 in the test on NCI-H460 is > 100 µM (inactive); in the test with SNB-75 it was 52.8 µM (inactive); with HCC 2998 it was > 100 µM (inactive); in the test on DU-145 it was > 100 µM (inactive); in the test on A498, 98.6 µM (inactive); with SNB-19, > 100 µM (inactive). For the same molecule, the GI50 in the test on NCI-H226, in the test with SK-MEL-5, in the test with SK-MEL-28, in the test with CCRF-CEM, with M14 and with U-251 was > 100 µM (inactive) throughout. The GI50 is > 100 µM (inactive) in the test with UACC-62; > 100 µM (inactive) with OVCAR-4; > 100 µM (inactive) in the test on SK-OV-3; > 100 µM (inactive) in the test on IGROV-1; over 100 µM in the test with HCT-15; > 100 µM (inactive) in the test on OVCAR-5. Further, the GI50 in the test with CAKI-1 is > 100 µM (inactive).

The values above are taken from ChEMBL document CHEMBL1201862, “PubChem BioAssay data set” (2004).
